# Reference: patent US20040131574A1, “Method and composition for the control of hair growth” (priority 2001, published 2004)
# Tests used:
# Format in all cases: in vivo
# hair regrowth [1] = assay: hair regrowth after shaving in dogs treated s.c. twice daily for 13 days, versus saline control dog; settings: total daily dose 4-3 mg/kg; for relative order of hair regrowth: approximately 6 weeks post-drug; for hair regrowth compared with control dog: shaved 3 days post-drug, observed approximately 6 weeks post-drug
# Protocol: Several dogs were treated with (R,R) or (S,S)—(HO)2DEHSPM s.c. twice daily for 13 days. The total daily dose was 4-3 mg/kg. One additional dog served as a saline-treated control animal. All of the dogs were Holter monitored once weekly for evidence of cardiac rhythm disturbances. A post-drug Holter monitoring was performed 3 days post-drug and hair was shaved at that time to allow for the placing of the leads.
# hair regrowth [2] = assay: hair regrowth after shaving in dogs treated s.c. for 20 days; settings: s.c. 4.3 mg/kg/d for 20 days, shaved 5 days post-drug, observed approximately 8 weeks post-drug
# Protocol: Two dogs were treated with (R,R)—(HO)2DEHSPM (dihydroxydiethylhomospermine) s.c. at a dose of 4.3 mg/kg/d for 20 days. The dogs were Holter-Monitored once weekly for evidence of cardiac rhythm disturbances. A post-drug Holter monitoring was performed 5 days post-drug and hair was shaved at that time to allow for the placing of the leads.
# [3] = tested on: hair growth in the shaved area; assay: hair re-growth in partially shaven mice; settings: C57/B16 mice
# Protocol: Fourteen C57/B16 mice were partially shaven; one was maintained as a control and to the remainder was administered diethyl-homospermine [10 mg/kg-0.01% solution (Bid)], six times daily over 9 days.
# The above test (Example 1) was repeated except that the dosage of polyamine was 7.5 mg/kg.
SMILES,relative order of hair regrowth (hair regrowth [1]),hair regrowth compared with control dog (hair regrowth [1]),hair regrowth at shaved Holter lead sites (hair regrowth [2]),"resumption of normal hair growth in the shaved area ([3]; 10 mg/kg-0.01% solution (Bid), six times daily over 9 days)","normal hair re-growth in the shaved areas ([3]; dosage 7.5 mg/kg, otherwise as Example 1)"
"CCNC[C@H](O)CCNCCCCNCC[C@@H](O)CNCC [(R,R)—(HO)2DEHSPM, (R,R)-dihydroxydiethylhomospermine]","control dog >(S,S)—(HO)2DEHSPM dogs>(R,R)—HO2DEHSPM dogs",this was not the case with the treated animals,hair from the last Holter monitoring had not grown back,–,–
"CCNC[C@@H](O)CCNCCCCNCC[C@H](O)CNCC [(S,S)—(HO)2DEHSPM, (S,S)-dihydroxydiethylhomospermine]","control dog >(S,S)—(HO)2DEHSPM dogs>(R,R)—HO2DEHSPM dogs",this was not the case with the treated animals,–,–,–
"CCNCCCCNCCCCNCCCCNCC [diethyl-homospermine, N,N′-diethylhomospermine]",–,–,–,"The control resumed normal hair growth immediately in the shaved area, unlike the remainder of the mice in the test",the mice treated with the polyamine did not
